In US9034918B2, “Composition including at least one trans-cinnamaldehyde and the use thereof in the treatment of bacterial infections, specifically in the treatment of nosocomial infections” (SEPTEOS, priority 2009, dated 2015):

How the values were obtained:
Experiment in all cases: Antibiogram by diffusion technique (CA-SFM 2008)
Type in all cases: cell-based
[1] = tested on: E. coli strain 9003
Description: (§1) Three clinical categories were selected for interpretation of the in vitro sensitivity tests: sensitive (S), resistant (R) and intermediate (I). • The strains categorized S are those for which the probability of therapeutic success is high in the case of treatment by systemic route with the dosing schedule recommended in the summary of product characteristics (SPC) prepared by the French Health Products Safety Agency (AFSSAPS). • The strains categorized R are those for which there is a high probability of therapeutic failure regardless of treatment type and antibiotic dose. • The strains categorized I are those for which therapeutic success cannot be predicted. These strains form a heterogeneous group for which the results obtained in vitro are not predictive of therapeutic success. […] The intermediate category is also a buffer zone which takes into account technical and biological uncertainties.
(§2) The sensitivity of strains to antibiotics was determined by a diffusion technique according to the 2008 recommendations by the Antibiogram Committee of the French Microbiology Society (CA-SFM).
(§3) In terms of critical concentrations and diameters, strains are categorized as follows: • sensitive (S): strains for which the MIC of the antibiotic tested is less than or equal to the lower critical concentration c, which is equivalent to a diameter greater than or equal to the critical diameter D; • resistant (R): strains for which the MIC of the antibiotic tested are greater than the upper critical concentration C, corresponding to a diameter less than the critical diameter d; • intermediate sensitivity (I): strains for which the MIC of the antibiotic tested and the corresponding diameter are between the two critical concentrations and the two critical diameters.
(§4) The tests were carried out on Mueller-Hinton agar. An inoculum adjusted to 0.5 on the McFarland scale is then diluted to 1/100. Petri dishes are inoculated by swabbing. The dishes are read after 24 hours of incubation at 37° C.
(§5) The raw results are then interpreted according to the interpretative reading rules of the CA-SFM.

[2] = tested on: Enterobacter aerogenes (9004); conditions: strain 9004
Description: as §1, §2, §3, §4, §5

[3] = tested on: E. coli ATCC 25922; set-up: Diameter (D): unit not given here
Description: Three clinical categories were selected for interpretation of the in vitro sensitivity tests: sensitive (S), resistant (R) and intermediate (I). • The strains categorized S are those for which the probability of therapeutic success is high in the case of treatment by systemic route with the dosing schedule recommended in the summary of product characteristics (SPC) prepared by the French Health Products Safety Agency ([…]). • The strains categorized R are those for which there is a high probability of therapeutic failure regardless of treatment type and antibiotic dose. • The strains categorized I are those for which therapeutic success cannot be predicted. These strains form a heterogeneous group for which the results obtained in vitro are not predictive of therapeutic success. […] The intermediate category is also a buffer zone which takes into account technical and biological uncertainties. The sensitivity of strains to antibiotics was determined by a diffusion technique according to the 2008 recommendations by the Antibiogram Committee of the French Microbiology Society (CA-SFM). In terms of critical concentrations and diameters, strains are categorized as follows: • sensitive (S): strains for which the MIC of the antibiotic tested is less than or equal to the lower critical concentration c, which is equivalent to a diameter greater than or equal to the critical diameter D; • resistant (R): strains for which the MIC of the antibiotic tested are greater than the upper critical concentration C, corresponding to a diameter less than the critical diameter d; • intermediate sensitivity (I): strains for which the MIC of the antibiotic tested and the corresponding diameter are between the two critical concentrations and the two critical diameters. The tests were carried out on Mueller-Hinton agar. An inoculum adjusted to 0.5 on the McFarland scale is then diluted to 1/100. Petri dishes are inoculated by swabbing. The dishes are read after 24 hours of incubation at 37° C. The raw results are then interpreted according to the interpretative reading rules of the CA-SFM. Two examples: all strains of methicillin-resistant Staphylococcus are resistant to all beta-lactams, and the same is true for gentamicin-resistant strains; golden staph is necessarily resistant to kanamycin (and amikacin) and tobramycin. The quality of the diffusion method is controlled using E. coli strain ATCC 25922.

[4] = tested on: strain 9010, Acinetobacter baumannii, with VEB-1 ESBL
Description: as §1, §2, §3, §4, §5

[5] = tested on: strain 9007, Pseudomonas aeruginosa, with VIM-2 carbapenemase
Description: as §1, §2, §3, §4, §5

[6] = tested on: Pseudomonas aeruginosa strain 8134; set-up: D: unit not given here
Description: as §1, §2, §3, §4, §5

[7] = tested on: golden staph (S. aureus) strain 8147; set-up: D: unit not given here
Description: as §1, §2, §3, §4, §5

[8] = tested on: E. coli strain 8156; set-up: D: unit not given here
Description: as §1, §2, §3, §4, §5

[9] = tested on: E. coli strain 8154; set-up: D: unit not given here
Description: as §1, §2, §3, §4, §5

[10] = tested on: E. coli strain 8155; set-up: D: unit not given here
Description: as §1, §2, §3, §4, §5

[11] = tested on: Pseudomonas aeruginosa strain 8132; set-up: D: unit not given here
Description: as §1, §2, §3, §4, §5

[12] = tested on: E. coli strain 8157; set-up: D: unit not given here
Description: as §1, §2, §3, §4, §5

[13] = tested on: golden staph (S. aureus) strain 8239; set-up: D: unit not given here
Description: as §1, §2, §3, §4, §5

[14] = tested on: Pseudomonas aeruginosa strain 8128; set-up: D: unit not given here
Description: as §1, §2, §3, §4, §5

[15] = tested on: Pseudomonas aeruginosa strain 8129; set-up: D: unit not given here
Description: as §1, §2, §3, §4, §5

[16] = tested on: golden staph (S. aureus) strain 8240; set-up: D: unit not given here
Description: as §1, §2, §3, §4, §5

[17] = tested on: Enterococcus strain 8152; set-up: Diameter: unit not given here
Description: as §1, §2, §3, §4, §5

[18] = tested on: Enterococcus strain 8153; set-up: Diameter: unit not given here
Description: as §1, §2, §3, §4, §5

## NCC[C@H](O)C(=O)N[C@@H]1C[C@H](N)[C@@H](O[C@H]2O[C@H](CN)[C@@H](O)[C@H](O)[C@H]2O)[C@H](O)[C@H]1O[C@H]1O[C@H](CO)[C@@H](O)[C@H](N)[C@H]1O [Amikacin]
[1]
  Category: S
[2]
  Category: I

## CC(=O)OCC1=C(C(=O)O)N2C(=O)[C@@H](NC(=O)Cc3cccs3)[C@H]2SC1 [Cefalotin]
[3]
  Category (Cat.): S
  Diameter (D): 20
[1]
  Category: R
[4]
  Category: R
[5]
  Category: R
[2]
  Category: R
[6]
  Cat.: R
  D: 0
[7]
  Cat.: R
  D: 17
[8]
  Cat.: S
  D: 20
[9]
  Cat.: S
  D: 21
[10]
  Cat.: S
  D: 21
[11]
  Cat.: R
  D: 0
[12]
  Cat.: S
  D: 19
[13]
  Cat.: R
  D: 17
[14]
  Cat.: R
  D: 0
[15]
  Cat.: R
  D: 0
[16]
  Cat.: R
  D: 17

## CO/N=C(\C(=O)N[C@@H]1C(=O)N2C(C(=O)[O-])=C(C[N+]3(C)CCCC3)CS[C@H]12)c1csc(N)n1 [Cefepime]
[3]
  Category (Cat.): S
  Diameter (D): 25
[1]
  Category: R
[4]
  Category: R
[5]
  Category: S
[2]
  Category: R
[6]
  Cat.: S
[8]
  Cat.: S
[9]
  Cat.: S
[10]
  Cat.: S
[11]
  Cat.: S
[12]
  Cat.: S
[14]
  Cat.: S
[15]
  Cat.: S

## CO/N=C(\C(=O)N[C@@H]1C(=O)N2C(C(=O)O)=C(COC(C)=O)CS[C@H]12)c1csc(N)n1 [Cefotaxime]
[1]
  Category: R
[2]
  Category: R

## CO[C@@]1(NC(=O)Cc2cccs2)C(=O)N2C(C(=O)O)=C(COC(N)=O)CS[C@@H]21 [Cefoxitin]
[3]
  Category (Cat.): S
  Diameter (D): 24
[4]
  Category: R
[5]
  Category: R
[17]
  Category: R
  Diameter: 0
[18]
  Category: S
  Diameter: 25
[6]
  Cat.: R
  D: 0
[8]
  Cat.: S
  D: 26
[9]
  Cat.: S
  D: 26
[10]
  Cat.: S
  D: 25
[11]
  Cat.: R
  D: 0
[12]
  Cat.: S
  D: 30
[14]
  Cat.: R
  D: 0
[15]
  Cat.: R
  D: 0

## CC(C)(O/N=C(\C(=O)N[C@@H]1C(=O)N2C(C(=O)[O-])=C(C[n+]3ccccc3)CS[C@H]12)c1csc(N)n1)C(=O)O [Ceftazidime]
[3]
  Category (Cat.): S
  Diameter (D): 25
[1]
  Category: R
[4]
  Category: R
[5]
  Category: S
[2]
  Category: R
[6]
  Cat.: S
  D: 25
[8]
  Cat.: S
  D: 33
[9]
  Cat.: S
  D: 30
[10]
  Cat.: S
  D: 30
[11]
  Cat.: S
  D: 26
[12]
  Cat.: S
  D: 30
[14]
  Cat.: S
  D: 25
[15]
  Cat.: R
  D: 0

## C[C@@H](O)[C@H]1C(=O)N2C(C(=O)O)=C(S[C@@H]3CN[C@H](C(=O)Nc4cccc(C(=O)O)c4)C3)[C@H](C)[C@H]12 [Eratpenem]
[1]
  Category: S
[2]
  Category: S

## C[C@@H](O)[C@H]1C(=O)N2C(C(=O)O)=C(SCCN=CN)C[C@H]12 [Imipenem]
[3]
  Category (Cat.): S
  Diameter (D): 34
[1]
  Category: S
[4]
  Category: S
[5]
  Category: R
[2]
  Category: S
[6]
  Cat.: S
  D: 26
[8]
  Cat.: S
  D: 34
[9]
  Cat.: S
  D: 33
[10]
  Cat.: S
  D: 34
[11]
  Cat.: R
  D: 13
[12]
  Cat.: I
  D: 20
[14]
  Cat.: I
  D: 18
[15]
  Cat.: S
  D: 36

## CCn1cc(C(=O)O)c(=O)c2ccc(C)nc21 [Nalidixic acid]
[3]
  Category (Cat.): S
  Diameter (D): 28
[4]
  Category: R
[5]
  Category: R
[6]
  Cat.: R
  D: 0
[8]
  Cat.: S
  D: 27
[9]
  Cat.: S
  D: 24
[10]
  Cat.: S
  D: 28
[11]
  Cat.: R
  D: 0
[12]
  Cat.: R
  D: 0
[14]
  Cat.: R
  D: 0
[15]
  Cat.: R
  D: 0

## CCn1cc(C(=O)O)c(=O)c2cc(F)c(N3CCNCC3)cc21 [Noroxin]
[1]
  Category: R
[2]
  Category: R

## CC1(C)S[C@@H]2[C@H](NC(=O)[C@H](C(=O)O)c3ccsc3)C(=O)N2[C@H]1C(=O)O [Ticarcillin]
[3]
  Category (Cat.): S
  Diameter (D): 25
[1]
  Category: R
[4]
  Category: R
[5]
  Category: R
[2]
  Category: R
[6]
  Cat.: S
  D: 23
[8]
  Cat.: S
  D: 28
[9]
  Cat.: R
  D: 0
[10]
  Cat.: S
  D: 31
[11]
  Cat.: R
  D: 12
[12]
  Cat.: R
  D: 0
[14]
  Cat.: I
  D: 21
[15]
  Cat.: R
  D: 13

## Bactrim
[1]
  Category: S
[2]
  Category: R

## Colimycin
[1]
  Category: S
[2]
  Category: S

## Pristinamycin
[17]
  Category: S
  Diameter: 23
[18]
  Category: S
  Diameter: 22
[7]
  Cat.: S
  D: 29
[13]
  Cat.: S
  D: 32
[16]
  Cat.: S
  D: 27
